ChEMBL document CHEMBL1129835, “Selective cytotoxicity of certain 9-substituted ellipticines for leukemia cells in a variety of leukemia cell cultures” (1997)

Experiments:
Format in all cases: functional
Details in all cases: Homo sapiens
CAKI-1 = assay: The compound was evaluated for cytotoxicity against CAKI-1 renal cancer cell line
HCT-116 = assay: The compound was evaluated for cytotoxicity against HCT116 colon cancer cell line
IGROV-1 = assay: The compound was evaluated for cytotoxicity against IGROV1 ovarian cancer cell line
MDA-N = assay: The compound was evaluated for cytotoxicity against MDA-N breast cancer cell line
MOLT-4 = assay: The compound was evaluated for cytotoxicity against MOLT-4 leukemia cell line
NCI-H322M = assay: The compound was evaluated for cytotoxicity against NCI-H322M non-small cell lung cancer cell line
PC-3 = assay: The compound was evaluated for cytotoxicity against PC-3 prostate cancer cell line
U-251 = assay: The compound was evaluated for cytotoxicity against U251 CNS cancer cell line
LOX IMVI = assay: The compound was evaluated for cytotoxicity against LOX-IMVI melanoma cell line

Work on `Cc1c2ccncc2c(C)c2c1[nH]c1ccc(CN(CCO)CCO)cc12` yielded a GI50 (CAKI-1) of 0.25 µM, a GI50 (HCT-116) of 0.1 µM and a GI50 (IGROV-1) of 0.12 µM. The GI50 (MDA-N) was 0.37 µM, the GI50 (MOLT-4) was 0.02 µM and the GI50 (NCI-H322M) was 0.22 µM. For the same compound, the GI50 (PC-3) was 0.34 µM, the GI50 (U-251) was 0.26 µM and the GI50 (LOX IMVI) was 0.15 µM.

In the case of `CCN(CC)CCNCc1ccc2[nH]c3c(C)c4ccncc4c(C)c3c2c1`, the GI50 (CAKI-1) is reported as 0.16 µM, the GI50 (HCT-116) is reported as 0.05 µM and the GI50 (IGROV-1) is reported as 0.04 µM. It also gave a GI50 (MDA-N) of 0.11 µM, a GI50 (MOLT-4) of 0.01 µM and a GI50 (NCI-H322M) of 0.06 µM. The GI50 (PC-3) was 0.21 µM, the GI50 (U-251) was 0.18 µM and the GI50 (LOX IMVI) was 0.12 µM.
